The text below walks through data of article PMC2680345 (Journal of Antimicrobial Chemotherapy, 2009).

One data set is described as follows: clinical. The settings on record: both, human, in vivo.
For data set [1] the following is noted: cited from earlier work.
The conditions of data set [2]: for θ2 (factor associated with the covariate) / θ1 (typical value of V/F) / θ1 (typical value of ka): univariate model.
A short description of the next data set: Plasma concentrations. The settings on record: human, oral, ritonavir AUC0–24, median, external dataset, 18 HIV-infected patients, atazanavir/ritonavir/saquinavir 200/100/1600 mg once daily. The format is in vivo.
[3] abbreviates: final model, 300/100 mg once daily.
Where [4] appears, read: influence of Black-African ethnicity on V/F: V = θ1 * θ2^AFR.
The mark [5] stands for this setting: influence of Black-African ethnicity on ka: ka = θ1 * θ2^AFR.
Where [6] appears, read: influence of HIV status on V/F: V = θ1 * θ2^HIV.
Setting [7] is: influence of HIV status on ka: ka = θ1 * θ2^HIV.
The mark [8] stands for this setting: influence of Hispanic ethnicity on ka: ka = θ1 * θ2^HSP.
The mark [9] stands for this setting: influence of RTV AUC0–24 on V/F: V = θ1 * (RTV/7.52)^θ2.
Where [10] appears, read: influence of SQV on V/F: V = θ1 * θ2^SQV.
[11] abbreviates: influence of TDF on V/F: V = θ1 * θ2^TDF.
Where [12] appears, read: influence of TDF on ka: ka = θ1 * θ2^TDF.
The mark [13] stands for this setting: influence of sex on V/F: V = θ1 * θ2^SEX.
Setting [14] is: influence of weight on V/F: V = θ1 + θ2 * (WT − 76.2).

Read-outs that look alike come from different tables or passages of the source.

The Vd/F is the volume of distribution divided by bioavailability. Usually half-life stands for the time in which the quantity being followed falls by half. One may read the AUC(0-t) as the area under the concentration-time curve up to a stated or last time point. A higher AUC(0-t) goes with more exposure.

`COC(=O)N[C@H](C(=O)N[C@@H](Cc1ccccc1)[C@@H](O)CN(Cc1ccc(-c2ccccn2)cc1)NC(=O)[C@@H](NC(=O)OC)C(C)(C)C)C(C)(C)C` [atazanavir, Atazanavir]: the Vd/F in the data set “clinical” came to 103 L. For the same compound, the “AUC0–24 lower in HIV patients compared with healthy individuals” value in data set [1] is approximately 20%. Also, the “minimum concentrations lower in HIV patients compared with healthy individuals” value in data set [1] is reported as approximately 50%. Also, the “peak concentrations lower in HIV patients compared with healthy individuals” value in data set [1] was approximately 30%. The half-life in data set [1] (population analysis by Colombo et al.) is reported as 8.8 h. In addition, the “IIV CL/F (inter-individual variability)” value in data set [2] (basic model) was 48%; in data set [2] (setting [3]), 29%. In addition, the “IIV V/F (inter-individual variability)” value in data set [2] (basic model) and in data set [2] (setting [3]) was 48% in each case. Further, the “IIV ka (inter-individual variability)” value in data set [2] (basic model) and in data set [2] (setting [3]) was 154% throughout. In data set [2] (basic model (no covariates), 300/100 mg once daily), the “CL/F (apparent oral clearance)” value was found to be 7.6 L/h. In addition, the “mean individual predicted CL/F” value in data set [2] (females) is reported as 6.40 L/h; in data set [2] (males) it was 8.99 L/h. The “reduction of variability of CL/F by inclusion of ritonavir AUC0–24 as covariate” value in data set [2] (final versus basic model) worked out at 19%. Also, the “lower mean individual predicted CL/F in females compared with males” value in data set [2] (not significant) is recorded as approximately 29%. Also, the “θ2 (factor associated with the covariate)” value in data set [2] (influence of Black-African ethnicity on CL/F: CL = θ1 * θ2^AFR) was found to be 0.91; in data set [2] (setting [4]) it was 1.23; in data set [2] (setting [5]), 1.44; in data set [2] (influence of HIV status on CL/F: CL = θ1 * θ2^HIV) it was 0.80; in data set [2] (setting [6]), 0.81; in data set [2] (setting [7]), 1.42. Moreover, the “θ2 (factor associated with the covariate)” value in data set [2] (influence of Hispanic ethnicity on CL/F: CL = θ1 * θ2^HSP) was 1.60; in data set [2] (setting [8]), 4.42; in data set [2] (influence of RTV AUC0–24 on CL/F: CL = θ1 * (RTV/7.52)^θ2) it was −0.84; in data set [2] (setting [9]) it was −0.50; in data set [2] (influence of SQV (1600 mg once daily) on CL/F: CL = θ1 * θ2^SQV) it was 0.67; in data set [2] (setting [10]), 0.64. Also, the “θ2 (factor associated with the covariate)” value in data set [2] (influence of TDF (300 mg once daily) on CL/F: CL = θ1 * θ2^TDF) came to 0.83; in data set [2] (setting [11]) it was 0.71; in data set [2] (setting [12]), 1.10; in data set [2] (influence of sex on CL/F: CL = θ1 * θ2^SEX), 0.77; in data set [2] (setting [13]), 1.26; in data set [2] (influence of weight on CL/F: CL = θ1 + θ2 * (WT − 76.2)), 0.13. Moreover, the “θ2 (factor associated with the covariate)” value in data set [2] (setting [14]) is 1.26. Also, the “θ1 (typical value of V/F)” value came to 100 in data set [2] (setting [4]); 118 in data set [2] (setting [6]); 104 in data set [2] (setting [9]); 123 in data set [2] (setting [10]); 108 in data set [2] (setting [11]); 98.7 in data set [2] (setting [13]). Further, the “θ1 (typical value of V/F)” value in data set [2] (setting [14]) worked out at 105. Besides, the “θ1 (typical value of ka)” value in data set [2] (setting [5]) turned out to be 3.28; in data set [2] (setting [7]), 2.77; in data set [2] (setting [8]) it was 2.81; in data set [2] (setting [12]), 3.43.

Compound `CC(C)c1nc(CN(C)C(=O)N[C@H](C(=O)N[C@@H](Cc2ccccc2)C[C@H](O)[C@H](Cc2ccccc2)NC(=O)OCc2cncs2)C(C)C)cs1` [ritonavir] registered an AUC(0-t) in “Plasma concentrations” of 9060 ng·h/mL.
